According to patent US20210161894A1, “Compositions and Methods for Modulating Liver Endothelial Cell Fenestrations” (priority 2017, published 2021):
Entries after “also recorded” stand apart in the source; their conditions may differ.

Columns and labels:
[1] = system: isolated LSECs (liver sinusoidal endothelial cells); assay: SEM of fenestrations in isolated LSECs from young and old mice after 30 min drug treatment (second Example 7); format: cell-based; conditions: for Diameter / Frequency / Porosity: 30 min
Method: 3-4 and 18-24 month old male C57/B16 mice were obtained from the Animal Resource Centre in Perth, Western Australia. Animals were housed at the ANZAC Research Institute animal house on a 12 hour light/dark cycle and provided with ad libitum access to food and water. Mice were not fasted prior to euthanasia by a single intraperitoneal injection with 100 mg/kg ketamine and 10 mg/kg xylazine in saline. The study was approved by the Animal Welfare Committee of the Sydney Local Health District and was performed in accordance with the Australian Code of Practice for the care and use of animals for scientific research (AWC 2016/009). All information provided accords with the ARRIVE guidelines.
As described previously (Cogger et al. J e52698, 2015 https://dx.doi.org/10.3791/52698), mouse LSEC isolation was performed by perfusion of the liver with collagenase. Non-parenchymal cells were removed by a two-step Percoll gradient and Kupffer cells were removed by selective adherence to plastic. LSECs (seeded at 0.5×10^6 cells/cm2) were cultured (37° C., 5% CO2) in serum free RPMI-1640 for 3.5 hours before use.
Cells were treated with various agents for 30 minutes to determine effects on fenestrations. All agents were dissolved in serum-free RPMI media. All experiments were performed in triplicate for both young and old mice. Actin was disrupted with 0.5 μg/ml cytochalasin D and lipid rafts were disrupted with 3.6 and 1.8 μg/ml 7-keocholesterol; dosages were selected. […] The serotonergic/phospholipase C pathway was promoted with DOI (0.1 μg/ml) and endothelin receptors were inhibited by bosentan (550, 55 and 5.5 ng/ml) Death receptor 4 was promoted with TRAIL (100, 10. 1, 0.1 and 0.01 ng/ml) and NAD+ was promoted with NMN (5000, 50, 10, 1 and 0.1 μg/ml).
SEM was performed as previous described (Corbin et al J Biol Chem 274: 13729-13732, 1999.). LSECs were fixed in 2.5% glutaraldehyde in 0.1M sodium cacodylate buffer, osmicated, dehydrated in graded ethanol and hexamethyl disilazane, mounted on stubs, sputter coated with platinum and examined using a JEOL 6380 Scanning Electron Microscope (JEOL Ltd, Japan). Images at 10,000× magnification were collected by a blinded observer and used to measure fenestration diameter and LSEC porosity using Image J (NIH, MD, USA). […] Fenestrations less than 30 nm and gaps more than 300 nm were excluded from analysis. Porosity was defined as the percentage of the cell membrane covered with fenestrations. Frequency was defined at the number of fenestrations per […].
Individual specifications of analyses are described in figures legends. All data are presented as mean±SD. Experimental design and analysis were performed in accordance with the APS guidelines described in Curran-Everett and Benos DJ. Adv Physiol Educ 31: 295-298, 2007.

LSEC fenestrations = assay: SEM of LSEC fenestrations after drug treatments (Example 2, FIGS. 1-6); format: cell-based, mice; conditions: for fenestration porosity: 0.1 μM; for change in fenestration diameter: Bosentan 0.1 μM, Sildenafil 300 ng/ml, TRAIL 1 μg/ml
From the text: Young and old C57B16 mice (n=3 young mice, age 3-4 and n=3 old mice, 20-24 months) were maintained under full SPF conditions and with ad libitum feeding. The study had the approval of the Sydney South West Area Health Service Animal Welfare Committee. Mice at 20-24 months are senescent. Animals were sacrificed withCO2 and livers immediately perfusion-fixed via a 23G needle inserted into the portal vein. Liver tissue was fixed with1% glutaraldehyde/4% para-formaldehyde in PBS (0.1M sucrose).
Drug treatments and dosages (shown superimposed on their corresponding image in FIGS. 1, and 2) were performed by incubating liver cells at 37° C., 5% CO2 for 30 mins using RPMI with or without dissolved drug. All images were taken by two blinded researchers using a SEM at 10,000×, scale bars of 1 μm are shown.
Each data point represents the average±SD of 8 images (as shown in FIGS. 1 and 2), 616-3312 fenestration raw data points were collected per treatment.

[2] = system: actin cytoskeleton of LSECs; assay: dSTORM imaging of the actin cytoskeleton; format: cell-based; conditions: young mice
Method: dSTORM imaging was performed using an in-house microscope. LSECs were prepared for dSTORM by washing twice with PBS and fixation with 4% paraformaldehyde for 30 mins. Then LSECs were washed twice with PBS, permeabilised with Triton-X for 90 secs, blocked with 5% bovine serum albumin for 1 hour, and stained with Alexa Flour phalloidin 488 (1:40) for 20 min prior to imaging. Cells were washed using PBS with 0.1% Tween and placed in OxEA buffer (30) for dSTORM visualisation and image capture. The dSTORM used 488 and 647 nm excitation from diode-pumped lasers (Coherent Inc, CA, USA). Excitation was delivered via a 1.49NA 60× oil-immersion TIRF objective (Olympus Australia, AUS). Fluorescence was captured on two separate sCMOS cameras (Imaging Development Systems GmbH, Germany). Data was collected for up to 40,000 images at around 75 fps. 5-8 whole cell images were collected by a blinded observer for each treatment dosage and processed using rapidSTORM open source software (Wolter et al. Nat Methods 9: 1040, 2012.). Each image was examined for all sieve plates and actin structures. Densitometry measurements were performed using 5-8 dSTORM images with data analysis performed using Image J software (NIH, MD, USA).

## CCC(C)(C)C(=O)O[C@H]1C[C@@H](C)C=C2C=C[C@H](C)[C@H](CC[C@@H]3C[C@@H](O)CC(=O)O3)[C@H]21 [Simvastatin, simvastatin]
[1]; old mice, 0.1 μg/ml
  Change in Diameter, Old: ↑ (ns)
  Diameter: 147.47 ± 6.47 nm
  Frequency: 1.89 ± 0.74 no/area
[1]; old mice, 1 μg/ml
  Change in Diameter, Old: ↑ (ns)
  Diameter: 145.96 ± 6.55 nm
  Frequency: 1.88 ± 0.86 no/area
[1]; young mice, 0.1 μg/ml
  Diameter: 144.35 ± 18.95 nm
  Frequency: 2.42 ± 0.55 no/area
  Porosity: 4.05 ± 0.41%
[1]; young mice, 1 μg/ml
  Diameter: 126.55 ± 9.64 nm
  Frequency: 2.83 ± 0.51 no/area
  Porosity: 3.99 ± 0.55%
LSEC fenestrations; old mice, both Simvastatin treatments
  fenestration diameter: 152.0±19.2 nm

## CCOC(=O)C1=C(COCCN)NC(C)=C(C(=O)OC)C1c1ccccc1Cl (centres unmarked) [Amlodipine, amlodipine]
[1]; old mice, 5 ng/ml
  Diameter: 119.67 ± 22.63 nm
  Frequency: 3.56 ± 1.07 no/area
  Porosity: 4.44 ± 0.29 %
[1]; old mice, 20 ng/ml
  Change in Frequency, Old: ↑ (ns)
  Change in Porosity, Old: ↑ (ns)
  Diameter: 125.00 ± 13.36 nm
  Frequency: 3.00 ± 0.66 no/area
  Porosity: 3.98 ± 0.48 %
[1]; young mice, 5 ng/ml
  Diameter: 125.87 ± 9.30 nm
  Frequency: 3.47 ± 1.00 no/area
  Porosity: 4.73 ± 0.80%
[1]; young mice, 20 ng/ml
  Diameter: 123.66 ± 1.18 nm
  Frequency: 4.67 ± 0.65 no/area
  Porosity: 6.44 ± 1.14 %
LSEC fenestrations; young mice, 20 ng/ml
  fenestration diameter: 123.8±1.6 nm

## COc1ccccc1Oc1c(NS(=O)(=O)c2ccc(C(C)(C)C)cc2)nc(-c2ncccn2)nc1OCCO [Bosentan, bosentan]
[1]; old mice, 5.5 ng/ml
  Diameter: 131.03 ± 16.29 nm
  Frequency: 3.14 ± 0.35 no/area
  Porosity: 4.53 ± 0.59 %
[1]; old mice, 55 ng/ml
  Diameter: 121.14 ± 23.80 nm
  Frequency: 2.31 ± 1.03 no/area
  Porosity: 3.21 ± 0.36%
[1]; old mice, 550 ng/ml
  Diameter: 118.64 ± 4.36 nm
  Frequency: 1.46 ± 0.54 no/area
  Porosity: 1.86 ± 0.72%
[1]; young and old LSECs
  effect on porosity and fenestration frequency (summary in words): LSECs from old mice only were responsive
[1]; young mice, 5.5 ng/ml
  Diameter: 129.55 ± 5.46 nm
  Frequency: 3.66 ± 0.30 no/area
  Porosity: 5.18 ± 0.45%
[1]; young mice, 55 ng/ml
  Diameter: 132.12 ± 9.03 nm
  Frequency: 3.20 ± 1.23 no/area
  Porosity: 4.48 ± 1.12%
[1]; young mice, 550 ng/ml
  Diameter: 133.73 ± 9.03 nm
  Frequency: 2.30 ± 0.04 no/area
  Porosity: 3.66 ± 0.41%
LSEC fenestrations; old mice
  fenestration porosity: 4.2±0.4%
LSEC fenestrations; old mice, 7KC 4.5 μM
  change in fenestration diameter: No changes
LSEC fenestrations; young and old mice
  sieve plates and fenestration density on SEM images: maintained sieve plates and increased fenestration density
LSEC fenestrations; young mice
  fenestration porosity: 5.4±0.1%
  change in fenestration diameter: No changes
[2]
  actin changes with drug treatments (dSTORM): Stress fibres; also recorded: Fused actin structure; also recorded: Individual fenestrations
